The source of these data is patent US11840686B2, “Modulation of prekallikrein (PKK) expression” (Ionis Pharmaceuticals, Inc., priority 2013, dated 2023).

The test system of data set [1] is human PKK mRNA. In words: Antisense inhibition of human PKK mRNA in HepaRG cells, 5,000 nM (Example 2). The class given is cell-based. The essentials:
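qRT-PCR (RTS3454) read-out, RIBOGREEN-normalized; % inhibition vs untreated cells. HepaRG, 20,000 cells/well, electroporation, 5,000 nM ASO, ~24 h.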

Data set [2] deals with human PKK mRNA. In words: Dose-dependent antisense inhibition of human PKK in HepaRG cells, 0.19-5.00 uM (Example 5). It counts as cell-based. The settings on record: for percent inhibition of PKK mRNA, 0.19 μM: 0.19 μM antisense oligonucleotide; for percent inhibition of PKK mRNA, 0.56 μM: 0.56 μM antisense oligonucleotide; for percent inhibition of PKK mRNA, 1.67 μM: 1.67 μM antisense oligonucleotide; for percent inhibition of PKK mRNA, 5.00 μM: 5.00 μM antisense oligonucleotide. The method, boiled down: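 PKK mRNA knockdown was measured by real-time PCR (primer probe set RTS3454) about 16 h after electroporating 20,000 HepaRG cells per well with oligonucleotide at four doses from 0.19 to 5.00 μM. Levels were adjusted to RIBOGREEN-measured total RNA, and IC50 values were calculated.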

[3] abbreviates: Table 8, HepaRG cells, electroporation with 5,000 nM antisense oligonucleotide, approx. 24 hours, PKK mRNA by RT-PCR (RTS3454), relative to untreated control cells.
The mark [4] stands for this setting: Table 34, HepaRG, electroporation, ~16 h.
Setting [5] is: HepaRG cells, electroporation, approximately 16 hours, Table 36.
The mark [6] stands for this setting: 4 point dose response, HepaRG cells, Table 36.
Where [7] appears, read: HepaRG cells, electroporation, approximately 16 hours, Table 39.
The mark [8] stands for this setting: HepaRG cells, electroporation, approximately 16 hours, Table 35.

Strand notation (5' to 3'): a small letter for the sugar, then the base; units joined by * are phosphorothioate-linked, units joined directly phosphodiester-linked; [ ] holds rarer units or linkages, { } end groups; capitals alone tell only the bases. e = 2'-O-(2-methoxyethyl) (MOE); [5mC] = 5-methylcytosine; d = 2'-deoxy (DNA) Bounds are passed on as bounds.

For “547423 (e[5mC]*e[5mC]*e[5mC]*eT*eT*dG*dT*dG*dT*d[5mC]*d[5mC]*d[5mC]*dA*dT*dA*e[5mC]*eG*e[5mC]*eA*eA; antisense) [compound 547423]”, in the data set with human PKK mRNA [1] (setting [3]), the % inhibition – broadly, the share of the control response that was lost under treatment – came out at 95%. The “percent inhibition of PKK at 0.19 0μM” value in the data set with human PKK mRNA [2] (0.19 0μM, HepaRG cells, electroporation, approximately 16 hours, Table 41) turned out to be 78%. Also, in the data set with human PKK mRNA [2] (0.56 0μM, HepaRG cells, electroporation, approximately 16 hours, Table 41), the “percent inhibition of PKK at 0.56 0μM” value was determined as 92%. Besides, the half-inhibitory concentration (IC50) (in general, the midpoint of a concentration-inhibition curve) in the data set with human PKK mRNA [2] (4 point dose response, HepaRG cells, Table 41) was < 200 nM. Moreover, in the data set with human PKK mRNA [2] (setting [4]), the “percent inhibition of PKK at 0.19 μM” value was 37%, the “percent inhibition of PKK at 0.56 μM” value turned out to be 50%, the “percent inhibition of PKK at 1.67 μM” value is 92% and the “percent inhibition of PKK at 5.00 μM” value is reported as 90%. Moreover, in the data set with human PKK mRNA [2] (Table 34, PKK mRNA, HepaRG, electroporation, ~16 h), the IC50 came to 400 nM.

On to “546894 (eT*e[5mC]*eA*e[5mC]*eT*dG*dT*d[5mC]*d[5mC]*dT*dA*dT*dG*dT*d[5mC]*eA*e[5mC]*eT*eG*eT; antisense) [compound 546894]”, for which, in the data set on human PKK mRNA [1] (human PKK mRNA, HepaRG cells, 5-10-5 motif oligonucleotides targeting SEQ ID NO: 1 and 10), the “% inhibition” value is listed as 91%. Also, in the data set with human PKK mRNA [2] (setting [5]), the “percent inhibition of PKK at 0.19 μM” value stood at 15%, the “percent inhibition of PKK at 0.56 μM” value is given as 47%, the “percent inhibition of PKK at 1.67 μM” value came out at 50% and the “percent inhibition of PKK at 5.00 μM” value turned out to be 93%. Besides, in the data set with human PKK mRNA [2] (setting [6]), the half-maximal inhibitory concentration (IC50) stood at 900 nM.

For “547426 (eG*eA*eG*eT*eA*dA*d[5mC]*d[5mC]*dA*dG*dA*dG*d[5mC]*dT*d[5mC]*e[5mC]*e[5mC]*eT*eT*eG; antisense) [compound 547426]”, the “% inhibition” value with human PKK mRNA [1] (setting [3]) is reported as 92%. Also, in the data set with human PKK mRNA [2] (setting [5]), the “percent inhibition of PKK at 0.19 μM” value is given as 19%, the “percent inhibition of PKK at 0.56 μM” value amounted to 50%, the “percent inhibition of PKK at 1.67 μM” value was 84% and the “percent inhibition of PKK at 5.00 μM” value was 93%. The substance further gave a 50% inhibitory concentration (IC50) in the data set with human PKK mRNA [2] (setting [6]) of 600 nM. Besides, in the data set with human PKK mRNA [2] (HepaRG cells), the “percent inhibition of PKK mRNA, 0.19 μM” value is 18%; the “percent inhibition of PKK mRNA, 0.56 μM” value was 35%; the “percent inhibition of PKK mRNA, 1.67 μM” value amounted to 80%; the “percent inhibition of PKK mRNA, 5.00 μM” value came out at 95%. Further, in the data set on human PKK mRNA [2] (HepaRG cells, 0.19-5.00 μM), the midpoint of inhibition, the IC50, lay at 700 nM.

For “548757 (antisense eA*eG*eT*eA*dT*d[5mC]*dA*d[5mC]*dT*dG*dT*dA*d[5mC]*eT*eA*eG*eT) [compound 548757]”, the “% inhibition” value in the data set with human PKK mRNA [1] (human PKK mRNA, HepaRG cells, 5,000 nM antisense oligonucleotide, Table 18) is reported as 87%. Besides, in the data set on human PKK mRNA [2] (setting [7]), the “percent inhibition of PKK at 0.19 μM” value was 18%, the “percent inhibition of PKK at 0.56 μM” value amounted to 49%, the “percent inhibition of PKK at 1.67 μM” value is 82% and the “percent inhibition of PKK at 5.00 μM” value is given as 93%. In the data set with human PKK mRNA [2] (4 point dose response, HepaRG cells, Table 39), this substance came in with an IC50 of 600 nM.

As to “546849 (eA*eT*e[5mC]*eA*e[5mC]*dT*dG*dT*d[5mC]*d[5mC]*dT*dA*dT*dA*dT*e[5mC]*eA*e[5mC]*eT*eG; antisense) [compound 546849]”, in the data set on human PKK mRNA [1] (human PKK mRNA in HepaRG cells, 5-10-5 gapmers, Table 14), the “% inhibition” value was 93%. In addition, in the data set with human PKK mRNA [2] (setting [8]), the “percent inhibition of PKK at 0.19 μM” value is recorded as 23%, the “percent inhibition of PKK at 0.56 μM” value is given as 35%, the “percent inhibition of PKK at 1.67 μM” value is given as 83% and the “percent inhibition of PKK at 5.00 μM” value stood at 91%. For the same substance, half-maximal inhibition with human PKK mRNA [2] (4 point dose response, HepaRG cells, Table 35) (IC50) required 700 nM. Besides, in the data set with human PKK mRNA [2] (HepaRG cells), the “percent inhibition of PKK mRNA, 0.19 μM” value is recorded as 13%; the “percent inhibition of PKK mRNA, 0.56 μM” value amounted to 45%; the “percent inhibition of PKK mRNA, 1.67 μM” value is 84%; the “percent inhibition of PKK mRNA, 5.00 μM” value came to 98%. Besides, the IC50 with human PKK mRNA [2] (HepaRG cells, 0.19-5.00 μM) was determined as 700 nM.
